# Laboratory results reported in patent US11376307B2, “Compositions and methods of treating cancer with glycomimetic peptides” (SUSAVION BIOSCIENCES, INC., priority 2018, dated 2022).
# Positions of bridges follow the written chain, without caps; N, C: chain ends. Chains are numbered I, II in the order given.
# Tests used:
# human ASGPR-1 = biological target: T1, human ASGPR-1 (Homo sapiens, UniProt P07306); assay: Inhibition of binding of multivalent GalNAc-PAA; settings: about 200 pmoles biotinylated GalNAc-PAA, increasing peptide
# T1 construct: The extracellular domains of receptors, which were fused with the Fc domain of immunoglobulin IgG; purchased R&D Systems
# T1 sequence (P07306 62-291 limits assumed): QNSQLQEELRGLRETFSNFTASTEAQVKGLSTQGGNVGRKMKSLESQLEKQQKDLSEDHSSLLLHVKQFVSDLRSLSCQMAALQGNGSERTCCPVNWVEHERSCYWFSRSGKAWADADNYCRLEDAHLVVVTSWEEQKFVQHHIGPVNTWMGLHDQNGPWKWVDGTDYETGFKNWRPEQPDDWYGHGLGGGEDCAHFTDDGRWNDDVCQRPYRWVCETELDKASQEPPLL
# Procedure: FIGS. 3A-3D. sv6D as a mimetic of GalNAc. (FIG. 3A) Inhibition by sv6D of binding of multivalent GalNAc-PAA (GlycoTech Corp., Frederick, Md.) to recombinant rat CLEC10A and human ASGPR-1. The reaction mixture included approximately 200 pmoles of biotinylated GalNc-PAA and increasing concentrations of peptide. The figure includes average values from 3 independent experiments. (FIG. 3B) Biotinylated sv6D or GalNAc-PAA were incubated with rabbit antiserum raised against the 6D sequence (NQHTPR) (SEQ ID NO:1) conjugated to keyhole limpet hemocyanin (KLH). Binding was detected with streptavidin-peroxidase conjugate. Similar data were obtained in 2 experiments. (FIG. 3C) Inhibition by EGTA of binding of sv6D (pattern) or svL4 (solid) to CLEC10A and ASGPR-1, respectively. EGTA (1 mM) was added to the final concentrations indicated to assays. Retention of bound CLEC10A was determined by incubation with biotinylated anti-CLEC10A (goat IgG, R&D Systems) and detection with streptavidin-peroxidase conjugate (light grey circle). Similar data were obtained in 3 experiments. (FIG. 3D) Binding of svL4 and sv6D to human recombinant CLEC10A and ASGPR-1 as a function of concentration of peptide in the assay. The figure is representative of 4 separate assays.
# To further determine whether sv6D interacts with the actual sugar binding site, the ability of sv6D to compete with GalNAc-PAA for binding was assayed.
# [1] = test system: human monocyte-derived DCs co-cultured with CD3+ T cells; assay: Allogenic mixed leukocyte reaction, IFN-γ release; type: cell-based
# Procedure: FIGS. 5A-5B. Mixed leukocyte reaction. An allogenic mixture of 5×10^3 human monocyte-derived immature dendritic cells and 1×10^5 negatively selected CD3^+ T cells were incubated with various concentrations of sv6D. (FIG. 5A) Effect of concentration of sv6D in the medium on release of IFN-γ after 5 days of culture. […] (FIG. 5B) The time course of the appearance of IFN-γ in the medium of cultures incubated with 10 nM sv6D in (FIG. 5A) as compared with control incubations with PBS.
# Binding of a peptide to CLEC10A expressed by DCs is expected to stimulate maturation and potential activation of T cells. This hypothesis was tested by an experiment in which human monocyte-derived DCs were co-cultured with T cells. Expression of CLEC10A (CD301) by the DCs was established by flow cytometry. sv6D was added to the medium at various concentrations, and IFN-γ production by T cells was assayed. […] Significant release of IFN-γ occurred after 3 days of incubation (FIG. 5B), a time required for DC maturation.
# [2] = test system: ID8 ovarian cancer cell line; assay: Murine model of ovarian cancer, sv6D and anti-PD-1; type: in vivo, C57BL/6 mice
# Procedure: FIGS. 9A-9B. Combination study of sv6D and anti-PD-1. (FIG. 9A) The design of the experiment and extension of survival of C57BL/6 female mice implanted with ovarian cancer cell line ID8 and treatments with anti-PD-1 and sv6D. Anti-PD-1 (rat anti-mouse, clone 29F.1A12) was administered intraperitoneally every other day, 200 μg protein per dose, between day 41 and 49 (white bars). sv6D was administered subcutaneously every other day at 0.1 nmol/g, starting on day 36, 51 or 87 (grey bars). […] (FIG. 9B) Kaplan-Meier survival curves of mice treated with anti-PD-1 and/or sv6D. […] For group 3, the Mantel-Cox log-rank test p=0.003 indicates the significance between treatment with the combination and antibody alone. Anti-PD-1, square; sv6D, dark triangle; anti-PD-1 followed by sv6D (Group 3 in FIG. 9A), light triangle; PBS, circle.
# We tested whether sv6D would extend effectiveness of anti-PD-1. Five doses of anti-PD-1 (200 μg in PBS) were injected intraperitoneally on alternate days between days 41 and 49. sv6D was injected subcutaneously immediately after the treatment with anti-PD-1 and continued on alternate days to the end of the study (FIG. 9A, Group 3).
# [3] = test system: monocytes in the peritoneal cavity; assay: Response of peritoneal monocytes in RAG−/− mice; type: in vivo; settings: mice lacking B and T cells
# Procedure: To determine whether the target(s) for svL4 is located on lymphocytes, with subsequent cross-talk signaling to achieve activation of monocytes, an experiment was performed in which svL4 was injected into RAG^−/− mice, which lack activity of rag, the recombination activation gene. The ability to perform recombination to generate antigen-specific antibodies by V(D)J recombination is required for B and T cell precursors to produce functional antigen receptors on their surface, and without a functional rag gene these cells undergo apoptosis.
# [4] = Serum cytokine array (L-308) in healthy mice; type: in vivo, Balb/c mice; settings: svL4 s.c., 4 h, separate experiment
# Procedure: Ratios of treated vs. untreated samples obtained in a separate experiment with healthy Balb/c mice are shown in the right-hand column of Table 2 for comparison. The most significant increase in the serum of healthy mice treated with the peptide was in the amount of soluble HVEM (Herpes virus entry mediator, also designated TNFRSF14), which was a prominent protein in serum and increased approximately 10-fold within 4 h after treatment. In the tumor-bearing mice, the level of soluble HVEM in treated animals was similar to that in treated healthy mice, but the level in untreated animals was higher than that in healthy control mice.
substance,measurement,setting,value
"I: H-NQHTPRGGGSKK-NH2 / II: H-NQHTPRGGGSK / III: H-NQHTPRGGGS / IV: H-NQHTPRGGGS (amide I:11-IV:C, I:12-II:C, II:11-III:C) [sv6D]",Inhibition of binding of GalNAc-PAA to ASGPR-1,human ASGPR-1,inhibited
same,Incubation time after which significant release of IFN-γ occurred,[1]; 10 nM sv6D,3 days
same,Concentration giving maximal IFN-γ production / optimal cellular response,[1]; 5 days of culture,10 nM
same,Ascites formation,[2]; Group 5: sv6D from day 87 after anti-PD-1,essentially complete suppression of ascites formation
same,Survival,[2]; Group 6: hiatus of one week after a week of sv6D,survived only slightly longer than animals treated with PBS
same,Survival,[2]; combination of anti-PD-1 with sv6D (Group 4),maximal survival
same,Survival,"[2]; single agent: anti-PD-1 200 μg i.p. x5 (Group 1), sv6D 0.1 nmol/g s.c. alternate days (Group 7)",maximal survival
same,Accumulation of ascites,[2]; sv6D alone vs. anti-PD-1,inhibited accumulation of ascites to a greater extent than anti-PD-1
"I: H-VQATQSNQHTPRGGGSKK-NH2 / II: H-VQATQSNQHTPRGGGSK / III: H-VQATQSNQHTPRGGGS / IV: H-VQATQSNQHTPRGGGS (amide I:17-IV:C, I:18-II:C, II:17-III:C) [svL4]",Response of peritoneal monocytes,[3],essentially the same as that in C57BL/6 mice
same,Ratio of level of IFN-γ in sera (treated vs. untreated),[4],no change
same,Ratio of level of IL-1α in sera (treated vs. untreated),[4],0.86
same,Ratio of level of IL-2 in sera (treated vs. untreated),[4],no change
same,Ratio of level of IL-12p70 in sera (treated vs. untreated),[4],no change
same,Ratio of level of IL-17 in sera (treated vs. untreated),[4],no change
same,Ratio of level of IL-21 in sera (treated vs. untreated),[4],no change
same,Ratio of level of IL-23 in sera (treated vs. untreated),[4],no change
same,Ratio of level of IL-27 in sera (treated vs. untreated),[4],0.55
same,Ratio of level of IL-28 in sera (treated vs. untreated),[4],no change
same,Ratio of level of IL-31 in sera (treated vs. untreated),[4],no change
same,Ratio of level of Lymphotoxin-α in sera (treated vs. untreated),[4],0.74
same,Ratio of level of TNFα in sera (treated vs. untreated),[4],0.21
